# Results taken from patent publication US11759455B2, “Substituted 1H-imidazo[4,5-b]pyridin-2(3H)-ones and their use as GLUN2B receptor modulators” (JANSSEN PHARMACEUTICA NV, priority 2016, dated 2023).
# Biological target: T1, human GluN1/GluN2B NMDA receptors (Homo sapiens, UniProt Q13224)
# T1 construct: expressed in transfected cells
# Assay: Cell-based calcium flux (FLIPR) assay on cloned human NR1/NR2B ion channels expressed in mammalian cells (standard and HTS buffer variants);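 also: stable Tet-On inducible cell line, Ca2+ influx triggered by glutamate at about EC40 plus 10 µM glycine, fluorescent dye read-out over 5 min, normalized to control wells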
# Settings: HTS assay buffer (1.5 mM MgCl2 in dye loading buffer; 150 mM NaCl, 3 mM KCl in assay buffer), human GluN1/GluN2B, read-out: NR2B IC50 (μM) HTS assay
# T1 sequence (Q13224 27-1484, other chains not shown): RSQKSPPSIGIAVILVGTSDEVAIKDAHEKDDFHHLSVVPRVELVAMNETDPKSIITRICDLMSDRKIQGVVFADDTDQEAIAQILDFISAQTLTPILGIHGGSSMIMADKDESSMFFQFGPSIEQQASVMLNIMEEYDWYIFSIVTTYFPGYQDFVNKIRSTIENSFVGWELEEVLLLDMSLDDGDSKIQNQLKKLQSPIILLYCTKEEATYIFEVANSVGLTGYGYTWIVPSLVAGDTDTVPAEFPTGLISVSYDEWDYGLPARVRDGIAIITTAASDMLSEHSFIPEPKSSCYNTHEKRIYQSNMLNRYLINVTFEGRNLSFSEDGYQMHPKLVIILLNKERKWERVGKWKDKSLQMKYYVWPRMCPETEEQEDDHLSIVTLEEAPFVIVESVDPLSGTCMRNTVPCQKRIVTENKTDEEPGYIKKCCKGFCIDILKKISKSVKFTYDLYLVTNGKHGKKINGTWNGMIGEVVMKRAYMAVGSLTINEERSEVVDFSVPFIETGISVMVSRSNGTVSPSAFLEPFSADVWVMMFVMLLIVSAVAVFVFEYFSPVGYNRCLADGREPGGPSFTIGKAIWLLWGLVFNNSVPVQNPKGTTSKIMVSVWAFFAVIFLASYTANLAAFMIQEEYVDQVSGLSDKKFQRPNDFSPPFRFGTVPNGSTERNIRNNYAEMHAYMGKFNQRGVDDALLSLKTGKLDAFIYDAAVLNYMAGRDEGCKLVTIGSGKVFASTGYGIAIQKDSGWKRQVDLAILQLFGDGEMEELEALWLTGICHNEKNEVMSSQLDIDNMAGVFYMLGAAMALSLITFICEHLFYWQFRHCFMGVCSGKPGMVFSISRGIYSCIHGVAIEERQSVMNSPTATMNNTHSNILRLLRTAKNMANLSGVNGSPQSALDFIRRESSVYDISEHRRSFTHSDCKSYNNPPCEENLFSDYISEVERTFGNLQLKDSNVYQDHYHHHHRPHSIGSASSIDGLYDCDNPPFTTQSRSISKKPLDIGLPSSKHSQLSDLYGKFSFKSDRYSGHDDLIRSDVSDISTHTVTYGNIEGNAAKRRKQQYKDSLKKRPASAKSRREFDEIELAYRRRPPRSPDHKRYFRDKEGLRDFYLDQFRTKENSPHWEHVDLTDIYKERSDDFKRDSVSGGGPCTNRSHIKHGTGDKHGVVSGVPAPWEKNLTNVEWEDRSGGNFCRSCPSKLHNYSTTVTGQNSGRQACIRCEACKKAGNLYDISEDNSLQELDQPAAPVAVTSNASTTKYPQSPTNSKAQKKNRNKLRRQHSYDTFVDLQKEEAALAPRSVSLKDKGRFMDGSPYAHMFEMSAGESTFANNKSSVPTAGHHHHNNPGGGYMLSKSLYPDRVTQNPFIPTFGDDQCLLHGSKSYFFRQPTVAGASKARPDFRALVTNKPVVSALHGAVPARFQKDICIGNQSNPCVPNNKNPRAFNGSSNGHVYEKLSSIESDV
row,Structure (SMILES),IC50 [µM]
1,"COc1cc(F)ccc1-c1cnc2[nH]c(=O)n(Cc3ccc(F)cc3)c2c1 [Example 501, 6-(4-Fluoro-2-methoxy-phenyl)-1-[(4-fluorophenyl)methyl]-3H-imidazo[4,5-b]pyridin-2-one]",0.79
2,"O=c1[nH]c2ncc(-c3ccc(F)c(Cl)c3)cc2n1Cc1ccc(F)cc1 [Example 502, 6-(3-Chloro-4-fluoro-phenyl)-1-[(4-fluorophenyl)methyl]-3H-imidazo[4,5-b]pyridin-2-one]",4.86
3,"CCOc1ccccc1-c1cnc2[nH]c(=O)n(Cc3ccccc3F)c2c1 [Example 503, 6-(2-Ethoxyphenyl)-1-[(2-fluorophenyl)methyl]-3H-imidazo[4,5-b]pyridin-2-one]",5.49
4,"O=c1[nH]c2ncc(-c3cc(F)cc(F)c3)cc2n1Cc1cccc(Cl)c1 [Example 504, 1-[(3-Chlorophenyl)methyl]-6-(3,5-difluorophenyl)-3H-imidazo[4,5-b]pyridin-2-one]",4.13
5,"COc1cccc(Cn2c(=O)[nH]c3ncc(-c4cccnc4)cc32)c1 [Example 506, 1-[(3-Methoxyphenyl)methyl]-6-(3-pyridyl)-3H-imidazo[4,5-b]pyridin-2-one]",> 29
6,"COc1cccc(Cn2c(=O)[nH]c3ncc(-c4cc(C)cs4)cc32)c1 [Example 507, 1-[(3-Methoxyphenyl)methyl]-6-(4-methyl-2-thienyl)-3H-imidazo[4,5-b]pyridin-2-one]",8.1
7,"COc1ccc(Cn2c(=O)[nH]c3ncc(-c4cc(F)cc(F)c4)cc32)cc1 [Example 508, 6-(3,5-Difluorophenyl)-1-[(4-methoxyphenyl)methyl]-3H-imidazo[4,5-b]pyridin-2-one]",0.463
8,"COc1cc(Cn2c(=O)[nH]c3ncc(-c4c(F)cccc4OC)cc32)cc(OC)c1 [Example 509, 1-[(3,5-Dimethoxyphenyl)methyl]-6-(2-fluoro-6-methoxy-phenyl)-3H-imidazo[4,5-b]pyridin-2-one]",0.884
9,"COc1cc(Cn2c(=O)[nH]c3ncc(-c4cccc(C(F)(F)F)c4)cc32)cc(OC)c1 [Example 510, 1-[(3,5-Dimethoxyphenyl)methyl]-6-[3-(trifluoromethyl)phenyl]-3H-imidazo[4,5-b]pyridin-2-one]",17.4
10,"CC(C)c1ccc(Cn2c(=O)[nH]c3ncc(-c4ccc(Cl)cc4)cc32)cc1 [Example 511, 6-(4-Chlorophenyl)-1-[(4-isopropylphenyl)methyl]-3H-imidazo[4,5-b]pyridin-2-one]",> 29
11,"COc1ccnc(Cn2c(=O)[nH]c3ncc(-c4ccc(C(C)(C)C)cc4)cc32)c1OC [Example 512, 6-(4-tert-Butylphenyl)-1-[(3,4-dimethoxy-2-pyridyl)methyl]-3H-imidazo[4,5-b]pyridin-2-one]",> 29
12,"Cc1noc(C)c1Cn1c(=O)[nH]c2ncc(-c3cccc(C#N)c3)cc21 [Example 513, 3-[1-[(3,5-Dimethylisoxazol-4-yl)methyl]-2-oxo-3H-imidazo[4,5-b]pyridin-6-yl]benzonitrile]",> 29
13,"CCOc1ccc(F)cc1-c1cnc2[nH]c(=O)n(Cc3c(C)noc3C)c2c1 [Example 514, 1-[(3,5-Dimethylisoxazol-4-yl)methyl]-6-(2-ethoxy-5-fluoro-phenyl)-3H-imidazo[4,5-b]pyridin-2-one]",> 29
14,"COc1ccc(-c2cnc3[nH]c(=O)n(Cc4cc(C)on4)c3c2)cc1C [Example 515, 6-(4-Methoxy-3-methyl-phenyl)-1-[(5-methylisoxazol-3-yl)methyl]-3H-imidazo[4,5-b]pyridin-2-one]",0.156

# Same assay, conditions: standard assay buffer (0.5 mM MgCl2 in dye loading buffer; 137 mM NaCl, 4 mM KCl in assay buffer), human GluN1/GluN2B, read-out: NR2B IC50 (μM) standard assay
row,Structure (SMILES),IC50 [µM]
1,"COc1cccc(Cn2c(=O)[nH]c3ncc(-c4ccc(F)cc4OC)cc32)c1 [Example 505, 6-(4-Fluoro-2-methoxy-phenyl)-1-[(3-methoxyphenyl)methyl]-3H-imidazo[4,5-b]pyridin-2-one]",1.64
2,"Cc1cc(C)cc(-c2cnc3[nH]c(=O)n(Cc4cc(C)on4)c3c2)c1 [Example 516, 6-(3,5-Dimethylphenyl)-1-[(5-methylisoxazol-3-yl)methyl]-3H-imidazo[4,5-b]pyridin-2-one]",0.491
3,"CCOc1ccccc1-c1cnc2[nH]c(=O)n(Cc3cc(C)on3)c2c1 [Example 517, 6-(2-Ethoxyphenyl)-1-[(5-methylisoxazol-3-yl)methyl]-3H-imidazo[4,5-b]pyridin-2-one]",0.709
4,"COc1ccc(-c2cnc3[nH]c(=O)n(Cc4cc(C)on4)c3c2)c(OC)c1 [Example 518, 6-(2,4-Dimethoxyphenyl)-1-[(5-methylisoxazol-3-yl)methyl]-3H-imidazo[4,5-b]pyridin-2-one]",0.808
5,"COc1ccc(-c2cnc3[nH]c(=O)n(Cc4cc(C)on4)c3c2)cc1F [Example 519, 6-(3-Fluoro-4-methoxy-phenyl)-1-[(5-methylisoxazol-3-yl)methyl]-3H-imidazo[4,5-b]pyridin-2-one]",0.139
6,"COc1cc(F)ccc1-c1cnc2[nH]c(=O)n(Cc3cc(C)on3)c2c1 [Example 520, 6-(4-Fluoro-2-methoxy-phenyl)-1-[(5-methylisoxazol-3-yl)methyl]-3H-imidazo[4,5-b]pyridin-2-one]",0.019
7,"CCOc1ccc(F)cc1-c1cnc2[nH]c(=O)n(Cc3cc(C)on3)c2c1 [Example 521, 6-(2-Ethoxy-5-fluoro-phenyl)-1-[(5-methylisoxazol-3-yl)methyl]-3H-imidazo[4,5-b]pyridin-2-one]",0.132
8,"Cc1cc(Cn2c(=O)[nH]c3ncc(-c4ccc(F)cc4C)cc32)no1 [Example 522, 6-(4-Fluoro-2-methyl-phenyl)-1-[(5-methylisoxazol-3-yl)methyl]-3H-imidazo[4,5-b]pyridin-2-one]",0.034
9,"Cc1cc(Cn2c(=O)[nH]c3ncc(-c4cc(F)cc(F)c4)cc32)no1 [Example 523, 6-(3,5-Difluorophenyl)-1-[(5-methylisoxazol-3-yl)methyl]-3H-imidazo[4,5-b]pyridin-2-one]",0.133
10,"Cn1c(=O)n(CC(=O)NCCCCl)c2cc(-c3ccc(C(F)(F)F)s3)cnc21 [Example 532, N-(3-Chloropropyl)-2-[3-methyl-2-oxo-6-[5-(trifluoromethyl)-2-thienyl]imidazo[4,5-b]pyridin-1-yl]acetamide]",0.862
11,"CN(C)C(=O)Cn1c(=O)n(C)c2ncc(-c3ccc(F)c(C(F)F)c3)cc21 [Example 533, 2-[6-[3-(Difluoromethyl)-4-fluoro-phenyl]-3-methyl-2-oxo-imidazo[4,5-b]pyridin-1-yl]-N,N-dimethyl-acetamide]",0.025
12,"O=C(Cn1c(=O)n(CF)c2ncc(-c3ccc(C(F)(F)F)s3)cc21)N1CCC1 [Example 534, 1-[2-(Azetidin-1-yl)-2-oxo-ethyl]-3-(fluoromethyl)-6-[5-(trifluoromethyl)-2-thienyl]imidazo[4,5-b]pyridin-2-one]",0.036
13,"O=C(Cn1c(=O)n(CCF)c2ncc(-c3ccc(C(F)(F)F)s3)cc21)N1CCC1 [Example 535, 1-[2-(Azetidin-1-yl)-2-oxo-ethyl]-3-(2-fluoroethyl)-6-[5-(trifluoromethyl)-2-thienyl]imidazo[4,5-b]pyridin-2-one]",0.106
14,"O=C(Cn1c(=O)[nH]c2ncc(-c3cccc(C(F)(F)F)c3)cc21)N1CC(CCF)C1 [Example 536, 1-[2-[3-(2-Fluoroethyl)azetidin-1-yl]-2-oxo-ethyl]-6-[3-(trifluoromethyl)phenyl]-3H-imidazo[4,5-b]pyridin-2-one]",0.163
15,"CCC(=O)Cn1c(=O)[nH]c2ncc(-c3cccc(F)n3)cc21 [Example 537, 6-(6-Fluoro-2-pyridyl)-1-(2-oxobutyl)-3H-imidazo[4,5-b]pyridin-2-one]",0.273
16,"O=C(Cn1c(=O)[nH]c2ncc(-c3ccc(OCCF)c(C(F)(F)F)c3)cc21)N1CCC1 [Example 538, 1-[2-(Azetidin-1-yl)-2-oxo-ethyl]-6-[4-(2-fluoroethoxy)-3-(trifluoromethyl)phenyl]-3H-imidazo[4,5-b]pyridin-2-one]",0.24
17,"O=C(Cn1c(=O)[nH]c2ncc(-c3cc(OCCF)cc(C(F)(F)F)c3)cc21)N1CCC1 [Example 539, 1-[2-(Azetidin-1-yl)-2-oxo-ethyl]-6-[3-(2-fluoroethoxy)-5-(trifluoromethyl)phenyl]-3H-imidazo[4,5-b]pyridin-2-one]",0.333
18,"Cn1c(=O)n(Cc2cccnn2)c2cc(-c3ccc(F)c(C(F)F)c3)cnc21 [Example 541, 6-[3-(Difluoromethyl)-4-fluoro-phenyl]-3-methyl-1-(pyridazin-3-ylmethyl)imidazo[4,5-b]pyridin-2-one]",0.022
19,"Cn1c(=O)n(Cc2cccnn2)c2cc(-c3ccc(F)c(OC(F)F)c3)cnc21 [Example 542, 6-[3-(Difluoromethoxy)-4-fluoro-phenyl]-3-methyl-1-(pyridazin-3-ylmethyl)imidazo[4,5-b]pyridin-2-one]",0.016
20,"Cn1c(=O)n(Cc2cccnn2)c2cc(-c3ccc(Cl)c(OC(F)F)c3)cnc21 [Example 543, 6-[4-Chloro-3-(difluoromethoxy)phenyl]-3-methyl-1-(pyridazin-3-ylmethyl)imidazo[4,5-b]pyridin-2-one]",0.028
21,"Cn1c(=O)n(Cc2cncc(F)c2)c2cc(-c3ccc(Cl)c(OC(F)F)c3)cnc21 [Example 544, 6-[4-Chloro-3-(difluoromethoxy)phenyl]-1-[(5-fluoro-3-pyridyl)methyl]-3-methyl-imidazo[4,5-b]pyridin-2-one]",0.09
22,"Cn1c(=O)n(Cc2csnn2)c2cc(-c3ccc(F)c(F)c3)cnc21 [Example 545, 6-(3,4-Difluorophenyl)-3-methyl-1-(thiadiazol-4-ylmethyl)imidazo[4,5-b]pyridin-2-one]",0.512
23,"Cn1c(=O)n(Cc2cncc(F)c2)c2cc(-c3ccc(F)c(C(F)F)c3)cnc21 [Example 546, 6-[3-(Difluoromethyl)-4-fluoro-phenyl]-1-[(5-fluoro-3-pyridyl)methyl]-3-methyl-imidazo[4,5-b]pyridin-2-one]",0.024
